Results on five compounds are retold here after patent publication US10087233B2, “Coagulation factor VIII with reduced immunogenicity” (IMNATE SARL, priority 2012, dated 2018).

The test system of one assay is human iNKT cells. Kind of assay: Cell cluster formation of human iNKT cells with peptide-loaded U937 cells. The class given is cell-based. Conditions: iNKT cells with loaded U937 cells 1:1, 2 weeks, IL-2; FIG. 5. The protocol:
In order to establish whether human PBMC contained cells reacting with a CD1d-binding peptide epitope, invariant NKT (iNKT) cells were prepared from a buffy coat using magnetic beads coated with an antibody specific to the Valpha24-Jalpha18 chain of the T cell receptor (so-called invariant chain).
Said human iNKT cells (10^5/condition) were then incubated with mitomycine-C treated U937 cells (Ratio 1:1) loaded with 5 μg of either peptide encompassing aminoacid residues 188-204 of human factor VIII (SEQ ID NO: 5) or with control peptide (MHCII-MOG). Incubation was carried out for 2 weeks at 37° C. in RPMI containing 10% of fetal calf serum and 50 U/ml of human recombinant IL-2.
Culture plates were examined by eye for the presence of cell clusters. […] FIG. 5 illustrates the average of three microscopic field count of this observation (minimum 10 cells/cluster).

The test system of assay [1] is NKT cells. Kind of assay: Immunization with loaded JAWS2 cells, CD4+/CD8+ lineage of DX5/CD160 cells binding CD1d tetramers. The class given is in vivo, factor VIII KO mice. Here is the method: To determine the cell lineage to which NKT cells belonged, an experiment was performed as described in Example 2. Thus, JAWS2 cells were loaded with either peptide of SEQ ID NO: 3, B-domain-deleted factor VIII, alpha-gal-ceramide or kept unloaded before intraperitoneal (IP) injection in factor VIII KO mice (2×10^6 cells per mouse). Five days after intraperitoneal injections, the mice were sacrificed and the splenocytes prepared. Cell suspensions were then reacted with CD1d tetramers unloaded or loaded with peptide of SEQ ID NO: 3 or with alpha-gal-ceramide.
For faccs analysis, cells binding CD1d tetramers were labeled with DX5- and CD160-specific antibodies and either anti-CD4 or anti-CD8 antibodies. The table summarizes the results.

For another assay, the target named is T1, CD1d tetramers (Mus musculus, UniProt P11609).
T1 construct: purchased ProImmune
T1 sequence (P11609 22-305 limits assumed): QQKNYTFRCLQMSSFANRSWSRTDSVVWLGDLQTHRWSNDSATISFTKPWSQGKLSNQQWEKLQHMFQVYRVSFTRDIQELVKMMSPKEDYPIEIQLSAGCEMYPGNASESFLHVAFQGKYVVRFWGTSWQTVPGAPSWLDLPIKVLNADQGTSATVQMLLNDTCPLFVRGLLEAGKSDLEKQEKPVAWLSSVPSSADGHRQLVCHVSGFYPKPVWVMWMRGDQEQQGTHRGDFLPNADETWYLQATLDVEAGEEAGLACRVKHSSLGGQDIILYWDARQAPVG
T1 sequence (P01887 21-119 partner): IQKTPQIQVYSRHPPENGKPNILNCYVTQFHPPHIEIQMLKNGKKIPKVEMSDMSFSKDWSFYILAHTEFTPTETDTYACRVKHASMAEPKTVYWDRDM
Kind of assay: CD1d tetramers loaded with peptide, detection of NKT cells among CD4+ spleen cells. The class given is binding. Conditions: CD4+ spleen cells of naïve mice; FIG. 1. Here is the method:
A peptide encompassing SEQ ID NO: 1 was obtained by chemical synthesis. This peptide was used to load CD1d tetramers (ProImmune) by overnight incubation.
NKT cells were prepared from the spleen of naïve mice by depletion of all CD4(−) cells using magnetic beads.
CD4+ cells were then incubated with CD1d tetramers loaded by peptide of SEQ ID NO: 1 (P28 WT in FIG. 1), which corresponds to aminoacid sequence 190 to 209.

A further assay has as its system U937 cells. Kind of assay: CD1d surface expression on U937 cells incubated with peptide (FACS). The class given is cell-based, human. The note with it: as example 4; FIG. 6. The protocol:
To determine whether human antigen-presenting cells had the capacity to process and present a peptide epitope in the context of the CD1d molecule, the human macrophage cell line U937 was used.
The percentage of resting U937 cells expressing CD1d is low as detected with a specific anti-CD1d antibody. It was reasoned that, if U937 cells were incubated with a peptide having the sequence motif enabling it to bind to CD1d, then this should be detectable by increased expression of CD1d at cell surface. As observed for peptides encompassing MHC class II epitopes, the binding of a peptide stabilizes the conformation of the molecule (class II, or CD1d in the present case), allowing the complex to be anchored at cell surface and reducing its intracellular recycling.
U937 cells (7×10^5 cells) were incubated for 24h at 37° C. with 5 μg of peptide encompassing CD1d binding motifs or controls. The cells were then washed and incubated with fluorescence-labeled antibodies specific to CD1d and the number of positive cells evaluated using a FACS system.
Controls include (from left to right) unloaded U937, cells incubated with alpha-gal-ceramide and a conventional class II-restricted epitope (MHCII-MOG). The experiment includes sequences of factor VIII of either human (SEQ ID NO: 5) or mouse (SEQ ID NO: 6) origin corresponding to aminoacids 188-204 of the factor VIII sequence. […]

The test system of assay [2] is NKT cells. Kind of assay: Immunization with JAWS2 cells loaded with peptide, tetramer detection of NKT cells in spleen. In kind it is in vivo, factor VIII KO mice. Conditions: tetramers loaded with peptide, FIG. 2. Here is the method:
JAWS2 cells express CD1d but not MHC class II determinants.
JAWS2 cells were incubated 2 h at 37° C. with peptide of SEQ ID NO: 1 (10 μg/ml) and thoroughly washed twice. Cells were then treated with mitomycin to block cell division and washed 4 times to eliminate mitomycin. A cell suspension containing 2×10^6 cells in physiological serum was injected by the intraperitoneal route in each of a series of 3 naïve factor VIII KO mice. As a control, 3 naïve factor VIII KO mice received the same number of JAWS2 cells which had not been incubated with peptide of SEQ ID NO: 1.
Five days after IP injection, the mice were sacrificed and their spleen prepared as above using magnetic beads to eliminate all CD4(−) cells.
CD4+ cells were then incubated with tetramers loaded with peptide of SEQ ID NO: 1.

Setting [3] is: mice given JAWS2 loaded with the labelled substance, tetramers loaded with Alpha-gal-cer.
[4] abbreviates: mice given JAWS2 loaded with the labelled substance, tetramers loaded with Peptide SEQ ID NO: 3.
Where [5] appears, read: mice given JAWS2 loaded with the labelled substance, unloaded tetramers.
[6] abbreviates: mice given unloaded JAWS2 (natural repertoire), tetramers loaded with the labelled substance.

On to `CCCCCCCCCCCCCCCCCCCCCCCCCC(=O)N[C@@H](CO[C@H]1O[C@H](CO)[C@H](O)[C@H](O)[C@H]1O)[C@H](O)[C@H](O)CCCCCCCCCCCCCC` [Alpha-gal-cer, alpha-gal-ceramide, reference compound], for which the “presence of cell clusters (clumps of cells)” value in the assay on human iNKT cells was “to the same extent”. For the same compound, the “Number of DX5/CD160 cells, CD4+” value in the assay with NKT cells [1] (setting [3]) is reported as 2.3 ×10^3; with NKT cells [1] (setting [4]), 46 ×10^3; in the assay with NKT cells [1] (setting [5]), 0.1 ×10^3; in the assay on NKT cells [1] (setting [6]), 1.2 ×10^3. For the same compound, the “Number of DX5/CD160 cells, CD8+” value in the assay on NKT cells [1] (setting [3]) is recorded as 1.8 ×10^3; in the assay on NKT cells [1] (setting [4]) it was 1.9 ×10^3; in the assay with NKT cells [1] (setting [5]) it was 0 ×10^3; in the assay on NKT cells [1] (setting [6]) it was 1.3 ×10^3.

Turning to “AVFDEGKSWHS (homo sapiens) [SEQ ID NO: 4, human factor VIII 200-210]”, the “CD1d binding motif / NKT cells detected by peptide-loaded tetramers (in words)” value in the assay with CD1d tetramers is listed as “limited though significant”.

As for “KTQTLHKFILLFAVFDE (listed as Homo sapiens) [SEQ ID NO: 5, human factor VIII 188-204]”, the “presence of cell clusters (clumps of cells)” value with human iNKT cells is recorded as “clumps of cells form”.

For the compound “QTLHKFILLFA (homo sapiens) [SEQ ID NO: 3, human factor VIII 190-200]”, the “CD1d binding motif / NKT cells detected by peptide-loaded tetramers (in words)” value in the assay with CD1d tetramers is recorded as “major CD1d binding motif”. In the assay on U937 cells, the “expression of CD1d at the surface of U937 cells (in words)” value is “did not increase”. The “Number of DX5/CD160 cells, CD4+” value with NKT cells [1] (setting [3]) was 2.2 ×10^3; with NKT cells [1] (setting [4]), 47 ×10^3; with NKT cells [1] (setting [5]) it was 0.2 ×10^3; in the assay on NKT cells [1] (setting [6]), 39 ×10^3. The “Number of DX5/CD160 cells, CD8+” value in the assay on NKT cells [1] (setting [3]) is listed as 0.8 ×10^3; in the assay on NKT cells [1] (setting [4]), 4.1 ×10^3; with NKT cells [1] (setting [5]), 0.1 ×10^3; in the assay on NKT cells [1] (setting [6]), 3.5 ×10^3.

Regarding “QTLHKFILLFAVFDEGKSWH (listed as Homo sapiens) [SEQ ID NO: 1, human factor VIII 190-209]”, the “% of CD4+ T cells detected by CD1d tetramers loaded with peptide” value with CD1d tetramers is roughly 1%. Moreover, in the assay on NKT cells [2] (5 days after IP injection of 2×10^6 peptide-loaded JAWS2 cells), the “proportion of NKT cells specific for peptide when peptide is presented by JAWS2 cells” value was found to be 16%. In the assay on NKT cells [2] (control mice given JAWS2 cells not incubated with peptide), the “proportion of NKT cells specific for peptide, natural repertoire” value stood at 8%.
